Laboratory results published in PubChem BioAssay (NCI).
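Five concentrations, 48 hours, 96-well plates. Here, GI50 denotes the concentration required for 50% inhibition of growth. TGI is the concentration that stops growth completely.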

Key:
Assay in all cases: NCI-60 cell line screen, 48 h
786-0 renal = tested on: 786-0 renal
A498 renal = tested on: A498 renal
A549 NSCLC = tested on: A549 NSCLC
ACHN renal = tested on: ACHN renal
BT-549 breast = tested on: BT-549 breast
CAKI-1 renal = tested on: CAKI-1 renal
CCRF-CEM leukemia = tested on: CCRF-CEM leukemia
COLO 205 colon = tested on: COLO 205 colon
DU-145 prostate = tested on: DU-145 prostate
EKVX NSCLC = tested on: EKVX NSCLC
HCC-2998 colon = tested on: HCC-2998 colon
HCT-116 colon = tested on: HCT-116 colon
HCT-15 colon = tested on: HCT-15 colon
HL-60(TB) leukemia = tested on: HL-60(TB) leukemia
HOP-62 NSCLC = tested on: HOP-62 NSCLC
HOP-92 NSCLC = tested on: HOP-92 NSCLC
HS 578T breast = tested on: HS 578T breast
HT29 colon = tested on: HT29 colon
IGROV1 ovarian = tested on: IGROV1 ovarian
K-562 leukemia = tested on: K-562 leukemia
KM12 colon = tested on: KM12 colon
LOX IMVI melanoma = tested on: LOX IMVI melanoma
M14 melanoma = tested on: M14 melanoma
MALME-3M melanoma = tested on: MALME-3M melanoma
MCF7 breast = tested on: MCF7 breast
MDA-MB-231 breast = tested on: MDA-MB-231 breast
MDA-MB-435 = tested on: MDA-MB-435
MOLT-4 leukemia = tested on: MOLT-4 leukemia
NCI-H226 lung = tested on: NCI-H226 lung
NCI-H23 lung = tested on: NCI-H23 lung
NCI-H460 lung = tested on: NCI-H460 lung
NCI-H522 lung = tested on: NCI-H522 lung
NCI/ADR-RES ovarian = tested on: NCI/ADR-RES ovarian
OVCAR-3 ovarian = tested on: OVCAR-3 ovarian
OVCAR-4 ovarian = tested on: OVCAR-4 ovarian
OVCAR-5 ovarian = tested on: OVCAR-5 ovarian
OVCAR-8 ovarian = tested on: OVCAR-8 ovarian
PC-3 prostate = tested on: PC-3 prostate
RPMI-8226 leukemia = tested on: RPMI-8226 leukemia
SF-268 CNS = tested on: SF-268 CNS
SF-295 CNS = tested on: SF-295 CNS
SF-539 CNS = tested on: SF-539 CNS
SK-MEL-2 melanoma = tested on: SK-MEL-2 melanoma
SK-MEL-28 melanoma = tested on: SK-MEL-28 melanoma
SK-MEL-5 melanoma = tested on: SK-MEL-5 melanoma
SK-OV-3 ovarian = tested on: SK-OV-3 ovarian
SN12C renal = tested on: SN12C renal
SNB-19 CNS = tested on: SNB-19 CNS
SNB-75 CNS = tested on: SNB-75 CNS
SR leukemia = tested on: SR leukemia
SW-620 colon = tested on: SW-620 colon
T-47D breast = tested on: T-47D breast
TK-10 renal = tested on: TK-10 renal
U251 CNS = tested on: U251 CNS
UACC-257 melanoma = tested on: UACC-257 melanoma
UACC-62 melanoma = tested on: UACC-62 melanoma
UO-31 renal = tested on: UO-31 renal

In the case of CCN(CC)CCOc1ccc(C(=C(c2ccccc2)C2CCCC2)c2ccc(OCCN(CC)CC)cc2)cc1, the GI50 (786-0 renal) is reported as 12.2 µM, the TGI (786-0 renal) is reported as > 16.3 µM and the GI50 (A498 renal) is reported as > 16.3 µM. For the same compound, the TGI (A498 renal) was > 16.3 µM, the GI50 (A549 NSCLC) was 6.46 µM and the TGI (A549 NSCLC) was > 16.3 µM. The GI50 (ACHN renal) was > 16.3 µM, the TGI (ACHN renal) was > 16.3 µM and the GI50 (BT-549 breast) was 2.27 µM. For the same compound, the TGI (BT-549 breast) was 6.04 µM, the GI50 (CAKI-1 renal) was > 16.3 µM and the TGI (CAKI-1 renal) was > 16.3 µM. The GI50 (CCRF-CEM leukemia) was 4.52 µM, the TGI (CCRF-CEM leukemia) was > 16.3 µM and the GI50 (COLO 205 colon) was 3.2 µM. The TGI (COLO 205 colon) was 7.63 µM, the GI50 (DU-145 prostate) was 7.97 µM and the TGI (DU-145 prostate) was > 16.3 µM. The GI50 (EKVX NSCLC) was 7.53 µM, the TGI (EKVX NSCLC) was > 16.3 µM and the GI50 (HCC-2998 colon) was 4.62 µM. For the same compound, the TGI (HCC-2998 colon) was > 16.3 µM, the GI50 (HCT-116 colon) was 4.89 µM and the TGI (HCT-116 colon) was > 16.3 µM. The GI50 (HCT-15 colon) was > 16.3 µM, the TGI (HCT-15 colon) was > 16.3 µM and the GI50 (HL-60(TB) leukemia) was 3.13 µM. The TGI (HL-60(TB) leukemia) was 7.14 µM, the GI50 (HOP-62 NSCLC) was 9.41 µM and the TGI (HOP-62 NSCLC) was > 16.3 µM. The GI50 (HOP-92 NSCLC) was 1.33 µM, the TGI (HOP-92 NSCLC) was 6.89 µM and the GI50 (HS 578T breast) was 3.64 µM. It also gave a TGI (HS 578T breast) of 12.8 µM, a GI50 (HT29 colon) of 3.82 µM and a TGI (HT29 colon) of 10.4 µM. The GI50 (IGROV1 ovarian) was 3.49 µM, the TGI (IGROV1 ovarian) was 7.66 µM and the GI50 (K-562 leukemia) was 5.57 µM. For the same compound, the TGI (K-562 leukemia) was > 16.3 µM, the GI50 (KM12 colon) was 2.81 µM and the TGI (KM12 colon) was 5.28 µM. The GI50 (LOX IMVI melanoma) was 4.45 µM, the TGI (LOX IMVI melanoma) was 14.7 µM and the GI50 (M14 melanoma) was 7.22 µM. For the same compound, the TGI (M14 melanoma) was > 16.3 µM, the GI50 (MALME-3M melanoma) was 3.57 µM and the TGI (MALME-3M melanoma) was 10.3 µM. The GI50 (MCF7 breast) was 2.53 µM, the TGI (MCF7 breast) was 5.01 µM and the GI50 (MDA-MB-231 breast) was 4.57 µM. The TGI (MDA-MB-231 breast) was 15.6 µM, the GI50 (MDA-MB-435) was 3.19 µM and the TGI (MDA-MB-435) was 7.45 µM. For the same compound, the GI50 (MOLT-4 leukemia) was 4.47 µM, the TGI (MOLT-4 leukemia) was 13.3 µM and the GI50 (NCI-H226 lung) was 6.58 µM. The TGI (NCI-H226 lung) was > 16.3 µM, the GI50 (NCI-H23 lung) was 5.64 µM and the TGI (NCI-H23 lung) was > 16.3 µM. The GI50 (NCI-H460 lung) was 4.84 µM, the TGI (NCI-H460 lung) was > 16.3 µM and the GI50 (NCI-H522 lung) was 6.3 µM. For the same compound, the TGI (NCI-H522 lung) was > 16.3 µM, the GI50 (NCI/ADR-RES ovarian) was > 16.3 µM and the TGI (NCI/ADR-RES ovarian) was > 16.3 µM. For the same compound, the GI50 (OVCAR-3 ovarian) was 3.07 µM, the TGI (OVCAR-3 ovarian) was 6.54 µM and the GI50 (OVCAR-4 ovarian) was 5.35 µM. For the same compound, the TGI (OVCAR-4 ovarian) was > 16.3 µM, the GI50 (OVCAR-5 ovarian) was 6.13 µM and the TGI (OVCAR-5 ovarian) was > 16.3 µM. The GI50 (OVCAR-8 ovarian) was 6.88 µM, the TGI (OVCAR-8 ovarian) was > 16.3 µM and the GI50 (PC-3 prostate) was 6.16 µM. The TGI (PC-3 prostate) was > 16.3 µM, the GI50 (RPMI-8226 leukemia) was 2.77 µM and the TGI (RPMI-8226 leukemia) was 10.7 µM. For the same compound, the GI50 (SF-268 CNS) was 5.35 µM, the TGI (SF-268 CNS) was > 16.3 µM and the GI50 (SF-295 CNS) was 5.77 µM. The TGI (SF-295 CNS) was > 16.3 µM, the GI50 (SF-539 CNS) was 5.51 µM and the TGI (SF-539 CNS) was > 16.3 µM. The GI50 (SK-MEL-2 melanoma) was 5.49 µM, the TGI (SK-MEL-2 melanoma) was > 16.3 µM and the GI50 (SK-MEL-28 melanoma) was 6.5 µM. For the same compound, the TGI (SK-MEL-28 melanoma) was > 16.3 µM, the GI50 (SK-MEL-5 melanoma) was 5.31 µM and the TGI (SK-MEL-5 melanoma) was > 16.3 µM. The GI50 (SK-OV-3 ovarian) was 7.95 µM, the TGI (SK-OV-3 ovarian) was > 16.3 µM and the GI50 (SN12C renal) was 5.28 µM. For the same compound, the TGI (SN12C renal) was > 16.3 µM, the GI50 (SNB-19 CNS) was 4.96 µM and the TGI (SNB-19 CNS) was > 16.3 µM. The GI50 (SNB-75 CNS) was 4.58 µM, the TGI (SNB-75 CNS) was > 16.3 µM and the GI50 (SR leukemia) was 3.29 µM. For the same compound, the TGI (SR leukemia) was 7.88 µM, the GI50 (SW-620 colon) was 5.05 µM and the TGI (SW-620 colon) was > 16.3 µM. For the same compound, the GI50 (T-47D breast) was 5.6 µM, the TGI (T-47D breast) was > 16.3 µM and the GI50 (TK-10 renal) was > 16.3 µM. For the same compound, the TGI (TK-10 renal) was > 16.3 µM, the GI50 (U251 CNS) was 3.85 µM and the TGI (U251 CNS) was 12.5 µM. For the same compound, the GI50 (UACC-257 melanoma) was 5.09 µM, the TGI (UACC-257 melanoma) was > 16.3 µM and the GI50 (UACC-62 melanoma) was 3.92 µM. For the same compound, the TGI (UACC-62 melanoma) was 11.1 µM, the GI50 (UO-31 renal) was > 16.3 µM and the TGI (UO-31 renal) was > 16.3 µM.
